# Measurements taken from patent US20100183645A1, “ACTIVE OR PASSIVE IMMUNIZATION AGAINST PROAPOPTOTIC NEUROTROPHINS FOR THE TREATMENT AND/OR PREVENTION OF NEURODEGENERATIVE DISEASES” (INSTITUT PASTEUR, priority 2003, published 2010).
# B1: BDNF treated with peroxynitrite: brain-derived neurotrophic factor treated with peroxynitrite by the identical protocol (protein, UniProt P23560 129-247, looked up)
# Neurotrophic factor BDNF: HSDPARRGELSVCDSISEWVTAADKKTAVDMSGGTVTVLEKVPVSKGQLKQYFYETKCNPMGYTKEGCRGIDKRHWNSQCRTTQSYVRALTMDSKKRIGWRFIRIDTSCVCTLTIKRGR
# modifications: Neurotrophic factor BDNF peroxynitrite-treated
# notes: brain-derived neurotrophic factor treated with peroxynitrite by the identical protocol
# B2: peroxynitrite-treated NGF: NGF oxidised by peroxynitrite, forming high molecular weight NGF aggregates (protein)
# chain: SSTHPVFHMGEFSVCDSVSVWVGDKTTATDIKGKEVTVLAEVNINNSVFRQYFFETKCRASNPVESGCRGIDSKHWNSYCTTTHTFVKALTTDEKQAAWRFIRIDTACVCVLSRKATRRG
# B3: NGF: mouse NGF (2.5S) from Harlan; nerve growth factor, also the immunogen in aluminum phosphate adjuvant (protein)
# chain: B2 chain
# Columns and labels:
# [1] = system: motor neurons plated on astrocyte monolayers; assay: Motor neuron survival in astrocyte-motor neuron co-cultures; assay type: cell-based, rat; conditions: for Motor neuron survival, percentage of control: co-cultures treated with NGF, mean±SD
# Procedure: Cell cultures and treatments. […] Astrocytes were plated at a density of 2×10^4 cells/cm^2 and maintained in DMEM supplemented with 10% fetal bovine serum, HEPES (3.6 g/l), penicillin ([…]) and streptomycin (100 μg/ml).
# For co-culture experiments, motor neurons were plated on astrocyte monolayers at a density of 300 cells/cm^2 and maintained in L15 medium supplemented with 0.63 mg/ml bicarbonate, 5 μg/ml insulin, 0.1 mg/ml conalbumin, 0.1 mM putrescine, 30 nM sodium selenite, 20 nM progesterone, 20 mM glucose, 100 IU/ml penicillin, 100 μg/ml streptomycin, and 2% horse serum. Drugs and blocking antibodies were added 3 h after plating at the indicated concentrations.
# Treatments with peroxynitrite and LPS. Peroxynitrite was generously provided by Dr. Rafael Radi (UDELAR, Uruguay) and its concentration determined spectrophotometrically at 302 nm (e=1700 M^−1 cm^−1). Confluent astrocyte monolayers were washed with Dulbecco's phosphate-buffered saline (PBS), supplemented with 0.8 mM MgCl2, 1 mM CaCl2, and 5 mM glucose, and then incubated in 1 ml of 50 mM Na2HPO4, 90 mM NaCl, 5 mM KCl, 0.8 mM MgCl2, 1 mM CaCl2, and 5 mM glucose, pH 7.4. Finally, three additions of 5 μL bolus of peroxynitrite were made to reach the final concentration of 0.5 mM. Five minutes after peroxynitrite exposure, the buffer was removed and replaced with L15 medium, supplemented as described above. In co-culture experiments, motor neurons were plated 1 h after peroxynitrite exposure. […] LPS (from E. coli 026-B6 Cat. No L2654 Sigma) was directly applied to astrocyte monolayers 24 h before and immediately after plating of motor neurons in coculture experiments.
# [2] = system: pure motor neuron cultures; assay: Motor neuron survival in pure motor neuron cultures maintained with GDNF; assay type: cell-based, rat; conditions: for Motor neuron survival with peroxynitrite-treated neurotrophin: without exogenous nitric oxide, GDNF 1 ng/ml, 48 h
# Procedure: Purified motor neuron cultures were plated at a density of 300 cells/cm^2 in dishes precoated with polyornithinelaminin and maintained in Neurobasal medium supplemented with 2% horse serum, […] L-glutamate, 25 μM β-mercaptoethanol, 0.5 mM L-glutamine, and 2% B-27 supplement (Gibco-Invitrogen). Blocking antibodies were added 3 h after plating at the indicated dilutions. The generation of a low steady state concentration (<50 nM) of nitric oxide was generated by the spontaneous deassociation of 10 μM DETA-NONate (Cayman).
# To assess the pro-apoptotic activity of conditioned media, astrocyte monolayers were incubated for 24 h in Neurobasal medium supplemented as described above, and that medium immediately used to replace the medium of pure motor neuron cultures established 24 h before. Blocking antibodies and DETA-NONOate were added to the conditioned media and motor neuron survival determined after 48 h.
# To assess the pro-apoptotic activity in spinal cord extracts, lumbar cords were dissected from 90 day-old G93A mice or non-transgenic littermates over ice under sterile conditions. To 100 mg of tissue were added 0.4 ml of PBS containing 3 mM EGTA, 1 mM EDTA, 0.5 μg/ml aprotinin, 0.5 μg/ml pepstatin and 0.1 mM PMSF at 0° C., and the tissue was then homogenized under sterile conditions. Homogenates were centrifuged at 40,000 g for 1 hr and the clear supernatants collected and kept at −80° C. until used. Aliquots were added to motor neuron cultures to reach a final protein concentration of 0.5 μg/ml. In all cases, blocking antibodies and drugs were added 3 h after motor neuron plating. The generation of a steady state concentration (<50 nM) of nitric oxide was obtained by the spontaneous disassociation of 10 μM NOC-18 (Dojindo, Gaithersburg).
# Cell counts. Motor neuron survival was assessed by directly counting all cells displaying intact neurites longer than 4 cells in diameter following immunostaining against p 75NTR Counts were performed over an area of 2.76 cm^2 in the center of 35 mm dishes or in an area measuring 0.90 cm^2 along a diagonal in 24-well plates (Cassina et al., 2002). The mean density of motor neurons in control cocultures was 90±4 cells/cm^2.
# Protocol for preparation of muscle extracts and western blotting. Quadriceps muscles were dissected from symptomatic G93A SOD1 or non transgenic littermate mice over ice under sterile conditions. To 1 g of tissues was added 4 ml of PBS containing 3 mM EGTA, 1 mM EDTA, 0.5 mg/ml aprotinin, 0.5 mg/ml pepstatin and 0.1 mM PMSF at 0° C., and the tissue was homogenized under sterile conditions. Homogenates were centrifuged at 40,000 g for 1 hr and the clear supernatants collected and kept at −80° C. until used. Quadriceps were homogenized in lysis buffer containing 2 mM EDTA, 1% SDS, 1 mM PMSF, 10 μg/ml aprotinin, 1 μg/ml leupeptin and 0.5 mM sodium vanadate. Protein quantification was performed using the BCA Protein Assay Reagent kit (Pierce Biotechnology). The samples were prepared in Laemmli buffer supplemented with […] and proteins were transferred to nitrocellulose membrane (Amersham). Membranes were blocked for 2 h in blocking buffer (5% BSA, 0.1% Tween 20 in Tris-buffered saline (TBS), pH 7.4) followed by an over-night incubation with the primary antibody diluted in blocking buffer. […]
# [3] = system: cultured spinal cord astrocytes; assay: ELISA determination of NGF secreted by cultured spinal cord astrocytes; assay type: cell-based, rat; conditions: peroxynitrite 0.5 mM
# Procedure: Cell cultures and treatments. Primary astrocyte cultures were prepared from the spinal cords of rats aged 1-2 days according to the procedures of Saneto and De Vellis (1987), with minor modifications (Cassina et al., 2002). Astrocytes were plated at a density of 2×10^4 cells/cm^2 and maintained in DMEM supplemented with 10% fetal bovine serum, HEPES (3.6 g/l), penicillin ([…]) and streptomycin (100 μg/ml). The astrocyte monolayers were >98% pure as determined by GFAP immunoreactivity and were devoid of OX42-positive microglial cells.
# Treatments with peroxynitrite and LPS. Peroxynitrite was generously provided by Dr. Rafael Radi (UDELAR, Uruguay) and its concentration determined spectrophotometrically at 302 nm (e=1700 M^−1 cm^−1). Confluent astrocyte monolayers were washed with Dulbecco's phosphate-buffered saline (PBS), supplemented with 0.8 mM MgCl2, 1 mM CaCl2, and 5 mM glucose, and then incubated in 1 ml of 50 mM Na2HPO4, 90 mM NaCl, 5 mM KCl, 0.8 mM MgCl2, 1 mM CaCl2, and 5 mM glucose, pH 7.4. Finally, three additions of 5 μL bolus of peroxynitrite were made to reach the final concentration of 0.5 mM. […]
# Determination of NGF/proNGF. The NGF protein concentration in the culture medium from astrocytes or spinal cord extracts was quantified using the NGF Emax ImmunoAssay System kit (Promega) following the manufacturer's instructions.
# [4] = system: G93A SOD-1 transgenic mice; assay: ALS-like disease progression and survival after systemic immunization against NGF; assay type: in vivo
# From the text: Systemic immunization against NGF on ALS-like disease progression and survival in transgenic mouse overexpressing mutant G93A-SOD1 gene. Animals. The transgenic mouse line overexpressing mutant G93A-SOD1 gene [TgN(SOD1-G93A)1Gur, a high expression mouse line] and the mating pairs were purchased from Jackson laboratory (Bar Harbor, Me., USA). Mice were housed and bred as described previously (Gurney et al. 1994) in accordance with the Institutional Animal Care guidelines.
# Immunization protocol. Adult, female, 40-50 day-old mice, initially weighing 18-24 g, were used for these experiments. Mice were group-housed 5 mice per cage and allowed free access to food and water. For testing, a total of 10 mice per group were autoimmunized against NGF. Each received […] of 25 μg of 2.5S mouse NGF (Harlam, USA) in 0.1 ml of a suspension of aluminum phosphate used as adjuvant. A second injection of 2.5S NGF (50 μg) in the same adjuvant was given 3 weeks later. Non-transgenic and vehicle-injected mice served as control animals for survival tests.
# Analysis of ALS-like disease progression and survival in transgenic mouse. Mice were examined daily for paralysis, disease progression and survival analysis. The initial symptoms of hind leg paralysis or failure to remain suspended in an inverted grid were considered as the disease progression threshold. Mice were killed at terminal stage, i.e. severely paralysis and inability to seek food and water.
molecule,measurement,setting,value
"FC(F)(F)c1ccccc1-n1ccnc1 [TRIM, 1-(2-Trifluoromethylphenyl)imidazole]",Prevention of motor neuron apoptosis induced by NGF,"[1]; co-culture, 10 μM, 72 h",significantly prevented
N=C(N)NN [aminoguanidine],Prevention of motor neuron apoptosis induced by NGF,"[1]; co-culture, 50 μM, 72 h",significantly prevented
same,"Motor neuron survival, percentage of control","[1]; inhibitor 50 μM, 72 h",87.0±8.0%
"CCCNC(=N)NCCC[C@H](N)C(=O)O [NPLA, N5[Imino(propylamino)methyl]-Lornithine; Nu-Propyl-L-arginine]",Prevention of motor neuron apoptosis induced by NGF,"[1]; co-culture, 10 μM, 72 h",significantly prevented
same,"Motor neuron survival, percentage of control","[1]; inhibitor 10 μM, 72 h",110.4±9.2%
"[N]=O [Nitric oxide, reference compound]","Motor neuron survival, nitric oxide alone","[2]; <50 nM from 10 μM NOC-18, without NGF",did not affect motor neuron survival
Oc1nc(O)c2nc(O)[nH]c2n1 [urate],Prevention of the effects of NGF on motor neurons,"[1]; co-culture, 200 μM, 72 h",prevented
COC(=O)CC[C@H](NC(=O)[C@H](CC(=O)OC)NC(=O)OCc1ccccc1)C(=O)N[C@H](C(=O)N[C@@H](CC(=O)OC)C(=O)CF)C(C)C [DEVD-fmk],Prevention of NGF-induced motor neuron death by caspase inhibitors,"[1]; co-culture, 10 μM added every 24 hours",prevented
O=NOO [peroxynitrite],Increase of NGF secretion to the culture medium,"[3]; 24 hours after treatment, LPS 1 μg/ml",~9 fold
same,NGF concentration in conditioned culture media versus controls,[3]; after 3 days,5 fold
"CC(=N)NCCCC[C@H](N)C(=O)O [LNIL, L-N6-(1-Iminoethyl)-lysine]",Prevention of motor neuron apoptosis induced by NGF,"[1]; co-culture, 10 μM, 72 h",significantly prevented
B1,Motor neuron survival with peroxynitrite-treated neurotrophin,[2],induces motor neuron apoptosis
B2,Motor neuron survival with peroxynitrite-treated neurotrophin,[2],Decreased motor neuron survival
B3,Motor neuron apoptosis in the presence of nitric oxide,"[2]; NGF 100 ng/ml, nitric oxide <50 nM from 10 μM NOC-18",induce motor neuron apoptosis
same,Survival of motor neurons maintained with GDNF,"[2]; NGF 100 ng/ml, no nitric oxide donor",no effect
same,"Motor neurons with fewer neurites, immunoreactive for nitrotyrosine and cleaved caspase-3","[1]; NGF 100 ng/ml, after 24 h in culture",Approximately 50%
same,Survival of motor neurons cultured on unstimulated astrocytes,"[1]; NGF 0.1-100 ng/ml, 72 h",reduced in a dose-dependent manner
same,Motor neuron survival after pre-incubation of the astrocyte monolayer,[1]; NGF removed before neuron plating,no effect
same,Subset of motor neurons vulnerable to NGF in culture,[1]; co-cultures,~40%
same,Tolerability of NGF autoimmunization,[4]; all NGF autoimmunized mice,gained weight and did not display any signs of discomfort
same,Delay of survival versus mice injected with adjuvant only,"[4]; female G93A mice, NGF in aluminum phosphate s.c., in average",10 to 15 days
same,Disease onset,[4]; in most of the NGF autoimmunized mice,delayed
